Molecules are shown by their SMILES. Where only a bound is given, the exact number is not on record here.

The species named for experiment [1] is Rattus norvegicus. Kind of experiment: Relative inhibition of [3H]histamine release from pre-loaded slices of rat cerebral cortex. It is filed as functional.
Experiment [2] deals with Histamine H1 receptor (Cavia porcellus) (UniProt P31389). Nature of the experiment: Evaluated for activity at Histamine H1 receptor in guinea pig ileum. It is filed as tissue-based.
Histamine H1 receptor (Cavia porcellus), sequence (P31389 whole entry): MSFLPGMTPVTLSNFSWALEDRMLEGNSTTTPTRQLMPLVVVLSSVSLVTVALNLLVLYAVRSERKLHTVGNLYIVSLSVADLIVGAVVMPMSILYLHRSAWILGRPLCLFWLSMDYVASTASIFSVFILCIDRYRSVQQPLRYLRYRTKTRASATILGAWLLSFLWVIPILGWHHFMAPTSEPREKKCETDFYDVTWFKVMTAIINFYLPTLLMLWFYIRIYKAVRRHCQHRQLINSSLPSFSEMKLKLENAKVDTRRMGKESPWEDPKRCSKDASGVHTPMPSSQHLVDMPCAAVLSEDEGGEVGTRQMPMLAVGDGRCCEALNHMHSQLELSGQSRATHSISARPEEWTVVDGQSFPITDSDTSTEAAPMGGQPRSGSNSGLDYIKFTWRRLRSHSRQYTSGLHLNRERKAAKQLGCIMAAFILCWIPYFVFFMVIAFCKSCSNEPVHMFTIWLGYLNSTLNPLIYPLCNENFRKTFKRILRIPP
For experiment [3] the target is unchanged. The settings on record: Ileum.
For experiment [4], the target named is Histamine H2 receptor (Cavia porcellus) (UniProt P47747). Nature of the experiment: Evaluated for activity at Histamine H2 receptor in guinea pig ileum. It is filed as tissue-based.
Histamine H2 receptor (Cavia porcellus), sequence (P47747 whole entry): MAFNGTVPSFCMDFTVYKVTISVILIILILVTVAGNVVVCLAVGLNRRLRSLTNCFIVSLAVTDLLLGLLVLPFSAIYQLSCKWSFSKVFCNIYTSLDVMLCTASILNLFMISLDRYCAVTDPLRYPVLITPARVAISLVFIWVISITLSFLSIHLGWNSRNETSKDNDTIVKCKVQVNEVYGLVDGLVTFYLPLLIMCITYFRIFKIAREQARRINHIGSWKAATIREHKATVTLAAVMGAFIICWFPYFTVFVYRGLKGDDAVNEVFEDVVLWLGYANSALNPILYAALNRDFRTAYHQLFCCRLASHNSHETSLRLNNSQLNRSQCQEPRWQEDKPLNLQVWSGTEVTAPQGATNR
Experiment [5] has the same target. To be noted: Cardiac atrium.
The target in experiment [6] is T1, Histamine H3 receptor (Rattus norvegicus, UniProt Q9QYN8). Nature of the experiment: Evaluated for antagonist activity against histamine H3 receptor and is represented as -log Ki. It is filed as functional.
T1 sequence (Q9QYN8 whole entry): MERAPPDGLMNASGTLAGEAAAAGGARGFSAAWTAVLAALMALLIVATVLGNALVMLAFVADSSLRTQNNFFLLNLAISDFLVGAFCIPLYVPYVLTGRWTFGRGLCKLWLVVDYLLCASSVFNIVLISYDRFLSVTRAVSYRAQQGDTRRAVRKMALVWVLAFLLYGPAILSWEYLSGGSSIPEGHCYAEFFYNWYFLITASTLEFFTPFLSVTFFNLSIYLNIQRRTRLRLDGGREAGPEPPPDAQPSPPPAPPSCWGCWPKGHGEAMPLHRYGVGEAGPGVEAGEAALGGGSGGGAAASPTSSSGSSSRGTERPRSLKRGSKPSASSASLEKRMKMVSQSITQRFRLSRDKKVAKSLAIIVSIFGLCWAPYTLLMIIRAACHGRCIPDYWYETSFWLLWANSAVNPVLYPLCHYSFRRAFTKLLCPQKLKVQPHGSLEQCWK
Experiment [7] concerns the target Histamine H3 receptor (Rattus norvegicus) (UniProt Q9QYN8). Kind of experiment: Evaluated for antagonist activity against histamine H3 receptor and represented as KB. It is filed as functional.
Target sequence in this assay (Q9QYN8 whole entry): as above
The species named for experiment [8] is Rattus norvegicus. Kind of experiment: Histamine level after treatment was determined in hypothalamus. It is filed as functional.
The species entered for experiment [9] is Rattus norvegicus. Kind of experiment: Histamine level after treatment was determined in spleen. It is filed as functional.
For experiment [10], the species on record is Rattus norvegicus. Nature of the experiment: Histamine level after treatment was determined in colon. It is filed as functional.
The species entered for experiment [11] is Rattus norvegicus. Nature of the experiment: Histamine level after treatment was determined in adbominal skin. It is filed as functional.
The species entered for experiment [12] is Rattus norvegicus. Kind of experiment: Histamine level after treatment was determined in cerebral cortex. It is filed as functional.
The species entered for experiment [13] is Rattus norvegicus. Nature of the experiment: Evaluated for [3H]HA release at a frequency 20 Hz for 2 min at a concentration 10 E -5M. It is filed as functional.
For experiment [14], the species on record is Rattus norvegicus. Nature of the experiment: Evaluated for [3H]-HA release at a frequency 10 Hz for 2 min at a concentration 10 E -5M. It is filed as functional.
The species entered for experiment [15] is Rattus norvegicus. Nature of the experiment: Evaluated for [3H]HA release at a frequency 2 Hz for 2.5 min at a concentration 10 E -6M. It is filed as functional.
For experiment [16], the species on record is Rattus norvegicus. Kind of experiment: Evaluated for [3H]-HA release at a frequency 33.3 Hz for 2 min at a concentration 10 E -6M. It is filed as functional.
The target in experiment [17] is Histamine H2 receptor (Cavia porcellus) (UniProt P47747). Nature of the experiment: Evaluated for activity against histamine H2 receptor in guinea pig gastric secretion and represented as intrinsic activity. To be noted: Stomach.
For experiment [18], the target named is Histamine H1 receptor (Cavia porcellus) (UniProt P31389). Nature of the experiment: Evaluated for their activity at histamine H1 receptor in guinea pig ileum. It is filed as tissue-based.
The species named for experiment [19] is Rattus norvegicus. Kind of experiment: Evaluated for [3H]HA release at a frequency 33.3 Hz for 2 min at a concentration 10 E -5M. It is filed as functional.
The species entered for experiment [20] is Rattus norvegicus. Kind of experiment: Evaluated for [3H]HA release at a frequency 10 Hz for 2 min at a concentration 10 E -7M. It is filed as functional.
The species entered for experiment [21] is Rattus norvegicus. Nature of the experiment: Evaluated for [3H]HA release at a frequency 20 Hz for 2 min at a concentration 10 E -6M. It is filed as functional.
For experiment [22], the species on record is Rattus norvegicus. Nature of the experiment: Evaluated for [3H]HA release at a frequency 10 Hz for 2 min at a concentration 10 E -6M. It is filed as functional.
Experiment [23] is filed under the species Rattus norvegicus. Nature of the experiment: Evaluated for [3H]HA release at a frequency 20 Hz for 2 min at a concentration 10 E -7M. It is filed as functional.
In experiment [24] the target is Histamine H2 receptor (Cavia porcellus) (UniProt P47747). Nature of the experiment: Evaluated for activity against histamine H2 receptor in guinea pig gastric secretion and represented as alpha. It is filed as tissue-based. The settings on record: Stomach.
The target of experiment [25] is Histamine H3 receptor (Rattus norvegicus) (UniProt Q9QYN8). Nature of the experiment: Evaluated for antagonist activity against histamine H3 receptor and represented as KB. It is filed as functional.
Target sequence in this assay (Q9QYN8 whole entry): as above
The target in experiment [26] is T1, Histamine H3 receptor. Nature of the experiment: (§1) Evaluated for antagonist activity against Histamine H3 receptor and represented as KB. It is filed as functional.
Experiment [27] concerns the target Histamine H2 receptor (Cavia porcellus) (UniProt P47747). Nature of the experiment: Evaluated for agonistic (intrinsic) activity at histamine H2 receptor of guinea pig atrium and is represented as intrinsic activity. It is filed as functional, tissue-based. To be noted: Cardiac atrium.
Experiment [28] deals with Histamine H1 receptor (Cavia porcellus) (UniProt P31389). Nature of the experiment: Evaluated for agonistic activity at histamine H1 receptor of guinea pig ileum and is represented as intrinsic activity. It is filed as functional, tissue-based.
Experiment [29] has the same target. Kind of experiment: Evaluated for agonistic activity at histamine H1 receptor of guinea pig ileum and is represented as potency. It is filed as functional, tissue-based.
The target of experiment [30] is Histamine H2 receptor (Cavia porcellus) (UniProt P47747). Kind of experiment: Evaluated for antagonist activity against histamine H2 receptor and represented as KB. It is filed as functional.
The species named for experiment [31] is Rattus norvegicus. Kind of experiment: Evaluated for inhibition of [3H]histamine release from preloaded slices and is represented as pD2. It is filed as functional.
The target of experiment [32] is Histamine H2 receptor (Cavia porcellus) (UniProt P47747). Kind of experiment: Evaluated for activity against histamine H2 receptor in guinea pig atrium and represented as intrinsic activity. The settings on record: Cardiac atrium.
The target is the same in experiment [33]. Kind of experiment: Evaluated for activity against histamine H2 receptor in guinea pig gastric secretion and represented as pD2. It is filed as tissue-based. The settings on record: Stomach.
For experiment [34], the target named is Histamine H3 receptor (Rattus norvegicus) (UniProt Q9QYN8). Nature of the experiment: Evaluated for activity against H3 receptor and represented as %recovery histamine release at a concentration 5 x 10 E -6M.
Target sequence in this assay (Q9QYN8 whole entry, looked up): as the sequence (Q9QYN8 whole entry) above
For experiment [35], the target named is Histamine H2 receptor (Cavia porcellus) (UniProt P47747). Nature of the experiment: Evaluated for activity against histamine H2 receptor in guinea pig atrium and represented as alpha. To be noted: Cardiac atrium. It is filed as tissue-based.
Experiment [36] addresses Histamine H3 receptor (Cavia porcellus) (UniProt Q9JI35). The experiment is described as §1. It is filed as functional.
For experiment [37], the species on record is Rattus norvegicus. Nature of the experiment: Histamine level after treatment was determined for both agents (R-alpha-methylhistamine, thioperamide) in lung. It is filed as functional.
Experiment [38] is filed under the species Rattus norvegicus. Nature of the experiment: Histamine level after treatment was determined for both agents (R-alpha-methylhistamine, thioperamide) in hypothalamus. It is filed as functional.
The species named for experiment [39] is Rattus norvegicus. Kind of experiment: Histamine level after treatment was determined for both agents (R-alpha-methylhistamine, thioperamide) in. It is filed as functional.
For experiment [40], the species on record is Rattus norvegicus. Nature of the experiment: Histamine level after treatment was determined for both agents (R-alpha-methylhistamine, thioperamide) in spleen. It is filed as functional.
For experiment [41], the species on record is Rattus norvegicus. Kind of experiment: Histamine level after treatment was determined for both agents (R-alpha-methylhistamine, thioperamide) in cerebral cortex. It is filed as functional.
Experiment [42] is filed under the species Rattus norvegicus. Nature of the experiment: Histamine level after treatment was determined for both agents (R-alpha-methylhistamine, thioperamide) in adbominal skin. It is filed as functional.

Histamine H3 receptor (Cavia porcellus), sequence (Q9JI35 whole entry): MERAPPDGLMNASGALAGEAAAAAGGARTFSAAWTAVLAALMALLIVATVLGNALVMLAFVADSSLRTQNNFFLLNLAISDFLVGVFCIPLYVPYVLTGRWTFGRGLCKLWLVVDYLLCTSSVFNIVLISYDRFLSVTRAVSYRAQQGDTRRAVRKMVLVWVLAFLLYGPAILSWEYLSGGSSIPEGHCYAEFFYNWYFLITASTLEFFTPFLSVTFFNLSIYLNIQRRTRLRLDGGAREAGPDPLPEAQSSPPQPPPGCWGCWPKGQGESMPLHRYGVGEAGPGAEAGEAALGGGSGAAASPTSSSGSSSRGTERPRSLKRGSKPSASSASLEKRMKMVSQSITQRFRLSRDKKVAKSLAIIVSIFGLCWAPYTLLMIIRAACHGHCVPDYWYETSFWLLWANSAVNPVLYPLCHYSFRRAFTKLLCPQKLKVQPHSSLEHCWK

`NCCc1c[nH]cn1` [HISTAMINE]: the Ratio_EC50 in the experiment listed under Rattus norvegicus [1] amounted to 100. Also, the Activity in experiment [2] and in experiment [4] was 100 each time. In experiment [3], this compound showed a Potency of 100. The pD2 in experiment [5] worked out at 5.95.

One may read the Ki as the dissociation constant of the complex between target and ligand, obtained from inhibition or displacement. Take `O=C(CCCc1cnc[nH]1)NCCc1cnc[nH]1`: on Histamine H3 receptor [6], the affinity, expressed as Ki, was 1 µM.

The term KB denotes the equilibrium dissociation constant of an antagonist, usually derived from a functional assay. Low values mean a more potent antagonist, high ones a less potent antagonist. Take `CN/C(=N\CCSCc1nc[nH]c1C)NC#N`: the KB in [7] is 33 µM.

Take `S=C(NC1CCCCC1)N1CCC(c2cnc[nH]2)CC1` [THIOPERAMIDE]: the Histamine level is given as 245 in the experiment filed under Rattus norvegicus [8]; 123 in the experiment filed under Rattus norvegicus [9]; 80 in the experiment listed under Rattus norvegicus [10]; 75 in the experiment filed under Rattus norvegicus [11]; 234 in the experiment listed under Rattus norvegicus [12].

Consider `Cc1[nH]cnc1CSCCNC(=N)NCCCc1c[nH]cn1` [IMPROMIDINE], for which the HA release in the experiment filed under Rattus norvegicus [13] is 35.1; in the experiment filed under Rattus norvegicus [14], 25.5; in the experiment listed under Rattus norvegicus [15], 14.3; in the experiment listed under Rattus norvegicus [16], 39.5; in the experiment listed under Rattus norvegicus [19], 38.4; in the experiment filed under Rattus norvegicus [20], 25.3. The HA release in the experiment listed under Rattus norvegicus [21] was found to be 35.5; in the experiment listed under Rattus norvegicus [22] it was 25.9; in the experiment listed under Rattus norvegicus [23], 31.2. Moreover, the intrinsic activity in experiment [17] worked out at 1. Further, in [18], the Activity was under 0.001. The H2 activity in [24] came out at 1.

Compound `CN(C)CC[C@@H](c1ccc(Cl)cc1)c1ccccn1` had a KB in experiment [25] of over 58 nM.

For `O=C(Cc1ccccc1)NCCc1c[nH]cn1`, the Ki on Histamine H3 receptor [26] is 1 µM.

Compound `CN(C)CCCSC(=N)N` returned a Ratio_EC50 in the experiment listed under Rattus norvegicus [1] of under 0.03. Moreover, the Activity was under 0.0001 in experiment [2] and 71 in experiment [4].

On to `O=C(CCC(c1ccccc1)c1ccccc1)NCCc1c[nH]cn1`, for which the affinity at Histamine H3 receptor [6], expressed as Ki, was 1 µM.

In the case of `Cc1nc[nH]c1CSCCN/C(N)=N/[C@@H](C)Cc1c[nH]cn1`, the Activity in experiment [27] and in experiment [28] was 0 throughout. Also, in experiment [29], the Potency was found to be 0.

As for `C/N=C(/NC#N)NCCSCc1csc(NC(=N)N)n1`, the KB was over 12 µM in experiment [7] and 15 nM in experiment [30].

On to `CC(C)NCCc1c[nH]cn1`, for which the pD2 in the experiment filed under Rattus norvegicus [31] is reported as under 5.5.

In the case of `CC(C)Cc1ccc(CSCC/N=C(\N)NCCCc2c[nH]cn2)o1`, in experiment [32], the intrinsic activity came to 0.9. Further, the pD2 in experiment [33] amounted to 7.8; in [24] it was 8.5. This compound yielded a Release in [34] of 100%. This compound also came in with an Activity in experiment [35] of 0.9.

As to `CNC(=S)NCCSCc1[nH]cnc1C`, the KB in experiment [7] came to 2.5 µM; in experiment [30], 920 nM.

For `O=C(CCCC1CCCCC1)NCCc1cnc[nH]1`, the Ki at Histamine H3 receptor [6] is 0.0501 µM.

In [36], `CNC(=C[N+](=O)[O-])NCCSCc1ccc(CN(C)C)o1` had a KB of 1.2 µM.

`C[C@@H](N)Cc1c[nH]cn1.S=C(NC1CCCCC1)N1CCC(c2c[nH]cn2)CC1`: the Histamine level came out at 143 in the experiment listed under Rattus norvegicus [37]; 205 in the experiment filed under Rattus norvegicus [38]; 75 in the experiment listed under Rattus norvegicus [39]; 96 in the experiment filed under Rattus norvegicus [40]; 196 in the experiment filed under Rattus norvegicus [41]; 73 in the experiment listed under Rattus norvegicus [42].

The compound `Cn1cnc(CCN)c1` [N-METHYLHISTAMINE] gave a Ratio_EC50 in the experiment listed under Rattus norvegicus [1] of under 4. Further, the results for the Activity in experiment [2] and in [4] were under 0.01 and under 0.1, respectively.

The record behind these values is ChEMBL document CHEMBL1124960, “Histamine H3 ligands: just pharmacological tools or potential therapeutic agents?” (J Med Chem, 1990).
